Test results: US10428080B2, “TBK/IKK inhibitor compounds and uses thereof” (Merck Patent GmbH, priority 2015, dated 2019)
Where a name gives a salt, the structure may show the parent alone. Read-outs that look alike come from different tables or passages of the source.

Assays:
TBK1 = target: T1, TBK1 (Homo sapiens, UniProt Q9UHD2); assay: TBK Biochemical Assay; conditions: read-out: TBK1 IC50
T1 sequence (Q9UHD2 1-729): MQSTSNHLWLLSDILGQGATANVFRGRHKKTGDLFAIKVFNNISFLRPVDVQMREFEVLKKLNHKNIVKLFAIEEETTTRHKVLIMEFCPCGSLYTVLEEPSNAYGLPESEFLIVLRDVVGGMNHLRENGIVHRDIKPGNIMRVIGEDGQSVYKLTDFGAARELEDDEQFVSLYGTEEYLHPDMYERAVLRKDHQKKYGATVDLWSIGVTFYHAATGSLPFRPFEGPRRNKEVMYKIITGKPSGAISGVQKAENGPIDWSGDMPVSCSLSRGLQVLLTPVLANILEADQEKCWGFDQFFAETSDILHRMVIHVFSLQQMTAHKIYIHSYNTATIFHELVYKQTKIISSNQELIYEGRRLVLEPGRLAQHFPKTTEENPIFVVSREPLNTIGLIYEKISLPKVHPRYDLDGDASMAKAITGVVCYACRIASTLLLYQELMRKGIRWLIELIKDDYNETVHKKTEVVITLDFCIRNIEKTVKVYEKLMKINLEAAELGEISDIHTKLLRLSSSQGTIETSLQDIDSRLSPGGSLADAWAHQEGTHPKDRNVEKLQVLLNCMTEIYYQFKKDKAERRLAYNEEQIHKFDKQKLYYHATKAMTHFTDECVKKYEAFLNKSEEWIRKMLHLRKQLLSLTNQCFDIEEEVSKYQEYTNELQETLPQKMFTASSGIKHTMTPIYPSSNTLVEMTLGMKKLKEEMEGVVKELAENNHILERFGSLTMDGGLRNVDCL
Summary of the method: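 TBK1 enzyme and substrate incubated with compounds (10-point 1:4 dilution, top 30 uM final, 1% DMSO) for 90 min at 25° C, then stopped. Substrate/product peaks read by microfluidic mobility-shift (Caliper LabChip); 10 uM staurosporine as full-inhibition control.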

IKKε = target: T2, IKKε (Homo sapiens, UniProt Q14164); assay: IKKe Biochemical Assay; conditions: read-out: IKKε IC50
T2 sequence (Q14164 1-716): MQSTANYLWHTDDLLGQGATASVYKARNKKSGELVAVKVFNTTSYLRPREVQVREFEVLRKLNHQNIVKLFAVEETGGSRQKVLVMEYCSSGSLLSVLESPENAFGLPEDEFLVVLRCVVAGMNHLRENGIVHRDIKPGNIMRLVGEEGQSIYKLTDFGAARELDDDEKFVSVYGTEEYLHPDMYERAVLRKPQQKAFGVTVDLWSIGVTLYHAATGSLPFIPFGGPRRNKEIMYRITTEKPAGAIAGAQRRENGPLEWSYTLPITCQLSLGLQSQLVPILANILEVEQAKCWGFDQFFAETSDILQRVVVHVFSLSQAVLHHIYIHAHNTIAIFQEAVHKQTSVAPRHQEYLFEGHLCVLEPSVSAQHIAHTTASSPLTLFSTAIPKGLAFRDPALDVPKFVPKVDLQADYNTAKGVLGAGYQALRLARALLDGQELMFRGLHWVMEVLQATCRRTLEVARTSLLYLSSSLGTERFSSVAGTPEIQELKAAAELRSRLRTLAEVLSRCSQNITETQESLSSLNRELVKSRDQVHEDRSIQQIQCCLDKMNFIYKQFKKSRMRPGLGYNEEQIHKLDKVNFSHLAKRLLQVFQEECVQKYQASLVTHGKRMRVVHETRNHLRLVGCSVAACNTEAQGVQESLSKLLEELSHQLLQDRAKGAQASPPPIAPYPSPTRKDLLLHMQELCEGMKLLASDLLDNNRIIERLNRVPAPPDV
Summary of the method: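 Recombinant IKKε and substrate were incubated with compound (10-point 1:4 series, top 30 uM final, 1% DMSO) for 90 min at 25° C, then stopped. Substrate-to-product conversion was read by LabChip microfluidic mobility shift; 10 uM staurosporine served as full-inhibition wells.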

[1] = tested on: phosphorylation of the IRF-3 protein in MDA-MB-468 cells; assay: pIRF3 immunocytochemistry cell based assay; conditions: Homo sapiens
Summary of the method: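 MDA-MB-468 cells got compounds (10-point, 3-fold from 10 uM) for 1 h at 37 °C, then 10 ug/ml Poly(I:C) for 2 h. Fixed, permeabilized cells were immunostained for pIRF3 with AlexaFluor488 and counterstained with PI. % phosphorylation was read by laser scanning cytometry, and IC50 curves were fitted.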

[2] = MDA-MB-468 cells, Poly(I:C) stimulation, read-out: pIRF3 IC50
[3] = MDA-MB-468, read-out: pIRF3 IC50

IC50 (TBK1) [nM] | IC50 (IKKε) [nM] | IC50 [1, 2] [nM] | Compound | IC50 [1, 3] [nM]
100 to 1000 | 1000 to 5000 | 1000 to 5000 | COc1cc(C(=O)N(C)C)cnc1-c1cc2ncc(C)c(-c3ccc(NC4CCOCC4)c(C#N)n3)c2o1 [Compound 322, 6-(7-(6-cyano-5-(tetrahydro-2H-pyran-4-ylamino)pyridin-2-yl)-6-methylfuro[3,2-b]pyridin-2-yl)-5-methoxy-N,N-dimethylnicotinamide] | 
< 100 | < 100 | 100 to 1000 | COc1cc(C(=O)N(C)C)ccc1-c1cc2nccc(-c3cnc(NC4CCOCC4)c(C#N)c3)c2o1 [Compound 324, 4-(7-(5-cyano-6-(tetrahydro-2H-pyran-4-ylamino)pyridin-3-yl)furo[3,2-b]pyridin-2-yl)-3-methoxy-N,N-dimethylbenzamide] | 
< 100 | < 100 | < 100 | COc1cc(C(=O)N(C)C)ncc1-c1cc2nccc(-c3ccc(OC4CCOCC4)c(C#N)c3)c2o1 [Compound 326, 5-[7-[3-cyano-4-(oxan-4-yloxy)phenyl]furo[3,2-b]pyridin-2-yl]-4-methoxy-N,N-dimethylpyridine-2-carboxamide] | 
< 100 | < 100 | < 100 | COc1cc(C(=O)N(C)CCO)cnc1-c1cc2nccc(-c3ccc(OC4CCOCC4)c(C#N)c3)c2o1 [Compound 328, 6-[7-[3-cyano-4-(oxan-4-yloxy)phenyl]furo[3,2-b]pyridin-2-yl]-N-(2-hydroxyethyl)-5-methoxy-N-methylpyridine-3-carboxamide] | 
< 100 | 100 to 1000 | 100 to 1000 | COc1cc(C(=O)N(C)C)cnc1-c1cc2ncc(F)c(-c3ccc(NC4CCOCC4)c(C#N)c3)c2o1 [Compound 329, 6-(7-[3-cyano-4-[(oxan-4-yl)amino]phenyl]-6-fluorofuro[3,2-b]pyridin-2-yl)-5-methoxy-N,N-dimethylpyridine-3-carboxamide] | 
< 100 | < 100 | 100 to 1000 | COc1cc(C(=O)N(C)CCO)cnc1-c1cc2ncc(F)c(-c3ccc(OC4CCOCC4)c(C#N)c3)c2o1 [Compound 334, 6-[7-[3-cyano-4-(oxan-4-yloxy)phenyl]-6-fluorofuro[3,2-b]pyridin-2-yl]-N-(2-hydroxyethyl)-5-methoxy-N-methylpyridine-3-carboxamide] | 
100 to 1000 | 100 to 1000 | 1000 to 5000 | COc1cc(C(=O)N(C)C)cnc1-c1cc2ncc(OC)c(-c3ccc(OC4CCOCC4)c(C#N)n3)c2o1 [Compound 338, 6-[7-[6-cyano-5-(oxan-4-yloxy)pyridin-2-yl]-6-methoxyfuro[3,2-b]pyridin-2-yl]-5-methoxy-N,N-dimethylpyridine-3-carboxamide hydrochloride] | 
< 100 | < 100 | 100 to 1000 | COc1cc(C(=O)NC2CC(CN(C)C)C2)ccc1-c1cc2nccc(-c3ccc(OC4CCOCC4)c(C#N)c3)c2o1 (stereo not drawn) [Compound 344, 4-[7-[3-cyano-4-(oxan-4-yloxy)phenyl]furo[3,2-b]pyridin-2-yl]-N-[3-[(dimethylamino)methyl]cyclobutyl]-3-methoxybenzamide] | 
< 100 | < 100 | 100 to 1000 | COc1cc(C(=O)NC2(CO)CCN(C)C2)ccc1-c1cc2nccc(-c3ccc(OC4CCOCC4)c(C#N)c3)c2o1 (stereo not drawn) [Compound 345, 4-[7-[3-cyano-4-(oxan-4-yloxy)phenyl]furo[3,2-b]pyridin-2-yl]-N-[3-(hydroxymethyl)-1-methylpyrrolidin-3-yl]-3-methoxybenzamide] | 
< 100 | < 100 | 100 to 1000 | COc1cc(C(=O)NC2CCN(C)CC2O)ccc1-c1cc2nccc(-c3ccc(OC4CCOCC4)c(C#N)c3)c2o1 (stereo not drawn) [Compound 347, 4-[7-[3-cyano-4-(oxan-4-yloxy)phenyl]furo[3,2-b]pyridin-2-yl]-N-(3-hydroxy-1-methylpiperidin-4-yl)-3-methoxybenzamide] | 
< 100 | < 100 | 100 to 1000 | COc1cc(C(=O)NC2CN(C)CCC2O)ccc1-c1cc2nccc(-c3ccc(OC4CCOCC4)c(C#N)c3)c2o1 (stereo not drawn) [Compound 348, 4-[7-[3-cyano-4-(oxan-4-yloxy)phenyl]furo[3,2-b]pyridin-2-yl]-N-(4-hydroxy-1-methylpiperidin-3-yl)-3-methoxybenzamide] | 
< 100 | < 100 | 100 to 1000 | COc1cc(C(=O)NC2(C#N)CCN(C)C2)ccc1-c1cc2nccc(-c3ccc(OC4CCOCC4)c(C#N)c3)c2o1 (stereo not drawn) [Compound 349, N-(3-cyano-1-methylpyrrolidin-3-yl)-4-[7-[3-cyano-4-(oxan-4-yloxy)phenyl]furo[3,2-b]pyridin-2-yl]-3-methoxybenzamide] | 
100 to 1000 | 1000 to 5000 | 1000 to 5000 | COc1cc(C(=O)N(C)C)cnc1-c1cc2ncc(F)c(-c3ccc(NC4CCOCC4)c(C#N)n3)c2o1 [Compound 352, 6-(7-[6-cyano-5-[(oxan-4-yl)amino]pyridin-2-yl]-6-fluorofuro[3,2-b]pyridin-2-yl)-5-methoxy-N,N-dimethylpyridine-3-carboxamide] | 
< 100 | < 100 | 100 to 1000 | COc1cc(C(=O)N(C)CCO)cnc1-c1cc2nccc(-c3ccc(NC4CCOCC4)c(C#N)n3)c2o1 [Compound 356, 6-(7-[6-cyano-5-[(oxan-4-yl)amino]pyridin-2-yl]furo[3,2-b]pyridin-2-yl)-N-(2-hydroxyethyl)-5-methoxy-N-methylpyridine-3-carboxamide] | 

Compound | IC50 (TBK1) [nM] | IC50 (IKKε) [nM] | IC50 [1, 2] [nM] | IC50 [1, 3] [nM]
COc1cc(C(=O)N(C)C)ncc1-c1cc2nccc(-c3ccc(NC4CCOCC4)c(C#N)c3)c2o1 [Compound 325, 5-(7-[3-cyano-4-[(oxan-4-yl)amino]phenyl]furo[3,2-b]pyridin-2-yl)-4-methoxy-N,N-dimethylpyridine-2-carboxamide] | < 100 | < 100 |  | 100 to 1000
COc1cc(C(=O)N(C)CCO)cnc1-c1cc2nccc(-c3ccc(OC4CCOCC4)c(C#N)n3)c2o1 [Compound 327, 6-[7-[6-cyano-5-(oxan-4-yloxy)pyridin-2-yl]furo[3,2-b]pyridin-2-yl]-N-(2-hydroxyethyl)-5-methoxy-N-methylpyridine-3-carboxamide hydrochloride] | < 100 | < 100 |  | < 100
COc1cc(C(=O)N[C@H]2COC[C@@H]2N(C)C)ccc1-c1cc2nccc(-c3ccc(OC4CCOCC4)c(C#N)c3)c2o1 [Compound 346, 4-[7-[3-cyano-4-(oxan-4-yloxy)phenyl]furo[3,2-b]pyridin-2-yl]-N-[(3R,4R)-4-(dimethylamino)oxolan-3-yl]-3-methoxy benzamide] | < 100 | < 100 |  | 100 to 1000
COc1cc(C(=O)NC2CN(CC(C)C)C2)ccc1-c1cc2nccc(-c3ccc(OC4CCOCC4)c(C#N)c3)c2o1 [Compound 355, 4-[7-[3-cyano-4-(oxan-4-yloxy)phenyl]furo[3,2-b]pyridin-2-yl]-3-methoxy-N-[1-(2-methylpropyl)azetidin-3-yl]benzamide] | < 100 | < 100 |  | 100 to 1000
